Values of other authors as cited in patent publication US20040037903A1, “Phytonutrient formula for the relief of chronic pain resulting from inflammation” (priority 2003, published 2004).

How the values were obtained:
5-HETE [1] = details: in vivo in rats, curcumin added to the diet
PGE2 = details: in vivo in rats, curcumin added to the diet
IL-8 = details: human cell lines
TNF-α = details: human cell lines
IL-1B = details: human cell lines
[2] = animal study, similar active dose
5-HETE [3] = details: rat polymorphonuclear leukocytes
IL-6 = details: incubation of mouse macrophages with resveratrol

In the case of `COc1cc(/C=C/C(=O)CC(=O)/C=C/c2ccc(O)c(OC)c2)ccc1O` [curcumin, diferuloyl methane], the “reduction of 5-HETE” value (5-HETE [1]) is listed as 80%, the “reduction of PGE2” value (PGE2) is listed as 38% and the “inhibition of cytokine IL-8” value (IL-8) is listed as “at least 50%”. For the same molecule, the “inhibition of cytokine TNF-α” value (TNF-α) was “at least 50%” and the “inhibition of cytokine IL-1B” value (IL-1B) was “at least 50%”.
For `CCCCC1C(=O)N(c2ccccc2)N(c2ccccc2)C1=O` [phenylbutazone], the ulcerogen index [2] is listed as 1.7.
In the case of `Oc1ccc(/C=C/c2cc(O)cc(O)c2)cc1` [resveratrol, 3,5,4′-trihydroxy-trans-stilbene], the “inhibition of 5-HETE” value (5-HETE [3]) is given as “greater than 70%” and the “inhibition of the production of IL-6” value (IL-6) is given as 34%.
